# Earlier results as cited in patent publication US12440455B2, “Methods of administering cannabinoids” (IMPACT NATURALS, INC., priority 2022, dated 2025).
# How the values were obtained:
# SARS-CoV-2 = conditions: Nguyen et al., Sci. Adv. 8, eabi6110 (2022)
# CB2 = CB2 (Homo sapiens, UniProt P34972); conditions: WHO assessment
# Sequence of CB2 (P34972 whole entry, species assumed): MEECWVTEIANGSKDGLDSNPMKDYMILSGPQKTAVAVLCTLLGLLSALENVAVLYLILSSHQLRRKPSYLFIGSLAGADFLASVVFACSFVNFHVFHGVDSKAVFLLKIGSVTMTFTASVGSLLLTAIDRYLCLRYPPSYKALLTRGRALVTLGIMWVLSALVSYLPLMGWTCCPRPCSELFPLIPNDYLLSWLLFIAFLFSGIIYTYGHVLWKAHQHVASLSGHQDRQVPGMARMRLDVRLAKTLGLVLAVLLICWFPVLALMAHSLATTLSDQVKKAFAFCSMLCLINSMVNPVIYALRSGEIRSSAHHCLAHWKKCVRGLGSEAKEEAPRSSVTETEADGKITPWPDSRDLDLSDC
compound,measurement,setting,value
C=C(C)[C@@H]1CCC(C)=C[C@H]1c1c(O)cc(CCCCC)cc1O [Cannabidiol],aqueous solubility,,approximately 0.013 milligrams per milliliter
same,inhibition of SARS-CoV-2 replication,SARS-CoV-2,inhibit SARS-CoV-2 replication
same,affinity to CB2,CB2,low affinity
